Measured values from patent US8110703B2, “Retinoid derivative and pharmaceutical composition and use thereof” (Anhui Medical University, priority 2008, dated 2012).
Several values for one entry are separate records, joined by “and”; a condition that tells them apart may be missing. Equal entries are not always repeated. Marks after values point to notes of the source that are not given here.

Assays:
Type in all cases: cell-based
HepG2 cells [1] = assay: γ-GT specific activity of HepG2 cells; details: DMSO
HepG2 cells [2] = assay: Cell cycle and apoptosis by flow cytometry, HepG2; details: HepG2, flow cytometry
A549 cells = assay: Differentiation index: CEA secretory volume of A549 cells; details: A549 culture supernatant, 10 ug/ml, 3 d
Experimental: 1.6 Detection of Differentiation Index The cultured A549 cells are randomly divided into 6 10 μg/ml drug groups, cell control groups, solvent control groups (DMSO and ethanol) and 10 μg/ml fenretinide control groups (11 in total). The control groups and drug groups are cultured for 3 days to collect respective 3 tubes of cell culture solutions which are centrifugated at a speed of 4000 r/min for 5 min to take the supernatant and detect the CEA content of the kit by using enzyme kinetics and CEA detection.

NB4 cells = assay: Cell cycle analysis by flow cytometer, NB4; set-up: S %: dose or concentration left out as unconfirmed; details: 72 h
Experimental: (§1) Retinoic acid derivatives and fenretinide are prepared as a storage solution of 10 mg/mL by anhydrous ethanol and stored at […] and kept out of light.
(§2) NB4 cells and K562 cells are inoculated with an initial concentration of 2*10^5/ml in the RPMI1640 culture solution having 10% of calf serum (FBS), 100 u/ml of penicillin, 100 Lg/ml of streptomycin and 2 mmol/L of glutamine for suspension culture (37° C., 5% CO2). Change the solution every 2-3 days.
(§3) For the cells above acted by the retinoic acid derivatives and fenretinide ([…]) for 72 h, about 10^6 of them are collected, washed by PBS twice, fixed by 70% of cold ethanol over 24 h, washed by PBS twice, added with 5 ug/ml of propidium iodide for staining and detected by a flow cytometer from which the data are analyzed and processed by the multi-cycle software.

liver cancer HepG2 cells = assay: MTT cell growth and proliferation experiment, HepG2; set-up: key to Inhibition Rate: (control OD570 − test OD570)/control OD570, as fraction; details: for Inhibition Rate: fraction
Experimental: (§4) 1.1 Reagents 12 retinoic acid derivatives with the final concentrations of 1 ug/ml, 5 ug/ml and 10 ug/ml are synthesized by the Pharmaceutical College of Anhui Medical University using DMSO and anhydrous ethanol, separately packaged for storage at −20° C. and kept out of the light when used, and the final concentration of DMSO is less than 0.1%. MTT is purchased from Sigma Corp. The Coulter DNA detection kit is presented by the Central Lab of Anhui Provincial Hospital. AFP and γ-GT are provided by the Clinical Lab of No. 105 Hospital of PLA. Apoptosis-Hoechst staining kit is purchased from Beyotime Company.
(§5) 1.2 Cell Culture A549, and HpeG2 cells are stored by our lab. Cell growth condition: DMEM (from GIBICO Company) culture solution is added with 10% of calf serum (purchased from the Hangzhou Sijiqing Biological Engineering Material Co., Ltd.) to culture in a cell culture incubator (37° C., 5% CO2) with saturated humidity.
(§6) 1.3 Cell Growth and Proliferation Experiments MTT process is used. Cells in the logarithmic phase are picked and seeded on a 96-hole culture board with a cell concentration of 5×10^7/L. Each hole of the board is 200 ul. The next day after the adherence, the original solution is discarded, and the culture solution is added. The cells are divided into 1 ug/ml retinoic acid derivative groups, 5 ug/ml retinoic acid derivative groups, 10 ug/ml retinoic acid derivative groups, blank control groups, cell control groups, solvent control groups (1‰ DMSO and anhydrous ethanol) (17 in total) according to the concentrations thereof, incubated for 3d, added with MTT (5 g/L) of 20 ul/hole for incubation at 37° C. for 4 h. The original solution is carefully discarded and dried, and DMSO of 20 ul/hole is added to dissolve crystals, followed by vibrating for 10 min and determining the OD value at 570 nm. Each concentration is corresponding to 5 holes, and each group calculates the average of 3 experiments to calculate the inhibition rate to the cell growth according to the optical density (OD) average of each hole in each group and the following equation: inhibition rate %=(control hole OD570−experimental hole OD570)/control hole OD5700*100%. The process above is repeated for three times. The second experiment takes the maximum concentration (10 […]) for culture respectively for 1, 2, 3 and 7 days and repeat for three times.

A549 lung cancer cells = assay: MTT cell growth and proliferation experiment, A549; set-up: key to Inhibition Rate: (control OD570 − test OD570)/control OD570, as fraction
Experimental: as §4, §5, §6

K562 cells = assay: Cell cycle analysis by flow cytometer, K562; set-up: S %: dose or concentration left out as unconfirmed; details: 72 h
Experimental: as §1, §2, §3

HepG2 cells [3] = assay: AFP secretory volume of HepG2 cells; details: HepG2 cells, DMSO
[4] = HepG2, MTT OD 570 nm, 1 ug/ml, 3 d, solvent not given
[5] = HepG2, MTT OD 570 nm, 5 ug/ml, 3 d, solvent not given
[6] = HepG2, MTT OD 570 nm, 10 ug/ml, 3 d, solvent not given
[7] = HepG2, MTT time gradient, 10 ug/ml, 1 d
[8] = HepG2, MTT time gradient, 10 ug/ml, 2 d
[9] = HepG2, MTT time gradient, 10 ug/ml, 3 d
[10] = HepG2, MTT time gradient, 10 ug/ml, 7 d
[11] = HepG2, MTT, 1 ug/ml, 3 d, solvent not given
[12] = HepG2, MTT, 5 ug/ml, 3 d, solvent not given
[13] = HepG2, MTT, 10 ug/ml, 3 d, solvent not given
[14] = HepG2, Table 5 repeat MTT, 10 ug/ml, 3 days, DMSO
[15] = A549, MTT time gradient, 10 ug/ml, 1 d
[16] = A549, MTT time gradient, 10 ug/ml, 1 d, fraction
[17] = A549, MTT time gradient, 10 ug/ml, 2 d
[18] = A549, MTT time gradient, 10 ug/ml, 2 d, fraction
[19] = A549, MTT time gradient, 10 ug/ml, 3 d
[20] = A549, MTT time gradient, 10 ug/ml, 3 d, fraction
[21] = A549, MTT time gradient, 10 ug/ml, 7 d
[22] = A549, MTT time gradient, 10 ug/ml, 7 d, fraction

CC1=C(/C=C/C(C)=C/C=C/C(C)=C/C(=O)Nc2cccc(C(F)(F)F)c2)C(C)(C)CCC1 [Example 3a-02, (3-trifluoromethylphenyl)-(all-trans)-3,7-dimethyl-9-(2,6,6-trimethyl-1-cyclohexen-1-yl)-2,4,6,8-nonatetraenoic acid amide]
γ-GT (HepG2 cells [1]): 35.6 ± 1.0 U/L
Apoptosis Rate (%) (HepG2 cells [2]): 30.2* %
G0-G1 (%) (HepG2 cells [2]): 40.3%
G2-M (%) (HepG2 cells [2]): 2.71%
S % (HepG2 cells [2]): 27.9%
CEA (A549 cells; DMSO): 2.8 µg/L
G1 % (NB4 cells): 45.83%
G2 % (NB4 cells): 2.87%
S % (NB4 cells): 51.30%
OD Value (x ± s) (liver cancer HepG2 cells; [4]): 1.19 ± 0.50
OD Value (x ± s) (liver cancer HepG2 cells; [5]): 0.92 ± 0.27
OD Value (x ± s) (liver cancer HepG2 cells; [6]): 0.94 ± 0.41
OD Value (x ± s) (liver cancer HepG2 cells; [7]): 1.43 ± 0.07
Inhibition Rate (liver cancer HepG2 cells; [7]): 0.17
OD Value (x ± s) (liver cancer HepG2 cells; [8]): 0.81 ± 0.12
Inhibition Rate (liver cancer HepG2 cells; [8]): 0.52
OD Value (x ± s) (liver cancer HepG2 cells; [9]): 0.55 ± 0.03
Inhibition Rate (liver cancer HepG2 cells; [9]): 0.55
OD Value (x ± s) (liver cancer HepG2 cells; [10]): 0.32 ± 0.12
Inhibition Rate (liver cancer HepG2 cells; [10]): 0.76
Inhibition Rate (liver cancer HepG2 cells; [11]): 0.30
Inhibition Rate (liver cancer HepG2 cells; [12]): 0.45
Inhibition Rate (liver cancer HepG2 cells; [13]): 0.45
OD Value (x ± s) (liver cancer HepG2 cells; [14]): 1.331 ± 0.067
Inhibition Rate (liver cancer HepG2 cells; [14]): 0.385*
OD Value (x ± s) (A549 lung cancer cells; A549, MTT OD 570 nm, 1 ug/ml, 3 d, solvent DMSO (D)): 1.551 ± 0.083 and 1.517 ± 0.100
OD Value (x ± s) (A549 lung cancer cells; A549, MTT OD 570 nm, 5 ug/ml, 3 d, solvent DMSO (D)): 1.510 ± 0.193 and 1.357 ± 0.159
OD Value (x ± s) (A549 lung cancer cells; A549, MTT OD 570 nm, 10 ug/ml, 3 d, solvent DMSO (D)): 1.296 ± 0.192 and 0.939 ± 0.040
OD Value (x ± s) (A549 lung cancer cells; [15]): 0.617 ± 0.072
Inhibition Rate (A549 lung cancer cells; [16]): 0.327
OD Value (x ± s) (A549 lung cancer cells; [17]): 0.703 ± 0.025
Inhibition Rate (A549 lung cancer cells; [18]): 0.519
OD Value (x ± s) (A549 lung cancer cells; [19]): 0.229 ± 0.010
Inhibition Rate (A549 lung cancer cells; [20]): 0.753
OD Value (x ± s) (A549 lung cancer cells; [21]): 0.106 ± 0.035
Inhibition Rate (A549 lung cancer cells; [22]): 0.949
Inhibition Rate (A549 lung cancer cells; A549, MTT, 1 ug/ml, 3 d, solvent DMSO (D), given as fraction): 0.169 and 0.187
Inhibition Rate (A549 lung cancer cells; A549, MTT, 5 ug/ml, 3 d, solvent DMSO (D), given as fraction): 0.191 and 0.273
Inhibition Rate (A549 lung cancer cells; A549, MTT, 10 ug/ml, 3 d, solvent DMSO (D), given as fraction): 0.305 and 0.497
G1 % (K562 cells): 39.7%
G2 % (K562 cells): 6.0%
S % (K562 cells): 54.2%
AFP (HepG2 cells [3]): 15.6 µg/L

CC1=C(/C=C/C(C)=C/C=C/C(C)=C/C(=O)Oc2ccccc2C(F)(F)F)C(C)(C)CCC1 [Example 2a-03, (2-trifluoromethylphenyl)-(all-trans)-3,7-dimethyl-9-(2,6,6-trimethyl-1-cyclohexen-1-yl)-2,4,6,8-nonatetraenoate]
γ-GT (HepG2 cells [1]): 60.6 ± 0.5 U/L
Apoptosis Rate (%) (HepG2 cells [2]): 16.3* %
G0-G1 (%) (HepG2 cells [2]): 57.3%
G2-M (%) (HepG2 cells [2]): 3.40%
S % (HepG2 cells [2]): 25.5%
CEA (A549 cells; ethanol): 3.9 µg/L
G1 % (NB4 cells): 65.72%
G2 % (NB4 cells): 5.54%
S % (NB4 cells): 28.74%
OD Value (x ± s) (liver cancer HepG2 cells; [4]): 1.32 ± 0.50
OD Value (x ± s) (liver cancer HepG2 cells; [5]): 1.32 ± 0.56
OD Value (x ± s) (liver cancer HepG2 cells; [6]): 0.98 ± 0.19
OD Value (x ± s) (liver cancer HepG2 cells; [7]): 1.61 ± 0.14
Inhibition Rate (liver cancer HepG2 cells; [7]): 0.07
OD Value (x ± s) (liver cancer HepG2 cells; [8]): 1.55 ± 0.09
Inhibition Rate (liver cancer HepG2 cells; [8]): 0.08
OD Value (x ± s) (liver cancer HepG2 cells; [9]): 1.24 ± 0.09
Inhibition Rate (liver cancer HepG2 cells; [9]): 0.09
OD Value (x ± s) (liver cancer HepG2 cells; [10]): 0.79 ± 0.08
Inhibition Rate (liver cancer HepG2 cells; [10]): 0.36
Inhibition Rate (liver cancer HepG2 cells; [11]): 0.22
Inhibition Rate (liver cancer HepG2 cells; [12]): 0.23
Inhibition Rate (liver cancer HepG2 cells; [13]): 0.42
OD Value (x ± s) (liver cancer HepG2 cells; [14]): 1.847 ± 0.091
Inhibition Rate (liver cancer HepG2 cells; [14]): 0.468*
OD Value (x ± s) (A549 lung cancer cells; A549, MTT OD 570 nm, 1 ug/ml, 3 d, solvent ethanol): 1.639 ± 0.115
OD Value (x ± s) (A549 lung cancer cells; A549, MTT OD 570 nm, 5 ug/ml, 3 d, solvent ethanol): 1.555 ± 0.162
OD Value (x ± s) (A549 lung cancer cells; A549, MTT OD 570 nm, 10 ug/ml, 3 d, solvent ethanol): 1.382 ± 0.133
OD Value (x ± s) (A549 lung cancer cells; [15]): 0.902 ± 0.055
Inhibition Rate (A549 lung cancer cells; [16]): 0.016
OD Value (x ± s) (A549 lung cancer cells; [17]): 1.066 ± 0.015
Inhibition Rate (A549 lung cancer cells; [18]): 0.271
OD Value (x ± s) (A549 lung cancer cells; [19]): 0.635 ± 0.033
Inhibition Rate (A549 lung cancer cells; [20]): 0.315
OD Value (x ± s) (A549 lung cancer cells; [21]): 1.393 ± 0.043
Inhibition Rate (A549 lung cancer cells; [22]): 0.328
Inhibition Rate (A549 lung cancer cells; A549, MTT, 1 ug/ml, 3 d, solvent ethanol, given as fraction): 0.122
Inhibition Rate (A549 lung cancer cells; A549, MTT, 5 ug/ml, 3 d, solvent ethanol, given as fraction): 0.167
Inhibition Rate (A549 lung cancer cells; A549, MTT, 10 ug/ml, 3 d, solvent ethanol, given as fraction): 0.260
G1 % (K562 cells): 45.1%
G2 % (K562 cells): 7.6%
S % (K562 cells): 47.3%
AFP (HepG2 cells [3]): 14.7 µg/L
